According to article PMC8614999, “A Comparative Analysis of Punicalagin Interaction with PDIA1 and PDIA3 by Biochemical and Computational Approaches” (Biomedicines, 2021):

Assays:
PDIA1 [1] = biological target: T1, PDIA1 (Homo sapiens, UniProt P07237); assay: Tryptophan fluorescence quenching titration, PDIA1; format: binding; conditions: for Stern–Volmer constant KSV: 0.1 × 10^−6 M protein; for Stern–Volmer constant KSV / Kd: pH 7.4, 25 °C; for Kd: fluorescence quenching
T1 construct: The pOLR130 plasmid encoding mature human PDIA1 with an N-terminal His6x-tag; His6 (N); made in house; host or cells: E. coli BL21
Procedure: (§1) Protein-ligand interactions were evaluated according to the fluorescence quenching titration method using a SPEX-FluoroMax spectrofluorometer (Horiba Scientific, Piscataway, NJ, USA). Emission spectra were recorded from 300 to 400 nm with an excitation wavelength set at 290 nm. The emission slit width was fixed to provide a 2 nm bandpass for all experiments. Scan speed was set at 120 nm min^−1. A total of 50 µM PDIA1 and PDIA3 stock solutions were reduced by adding DTT 5 mM. […] The titrations were performed by stepwise additions, at 5 min time intervals, of punicalagin solution from 0 to 4 µM (punicalagin 0.2 mM in PBS pH 7.4 freshly prepared from a 5 mM stock solution in water). Blank spectra for each experiment (no protein added) were performed in parallel for background determination. The emission spectrum of the protein was recorded three times, and the average reading values were then used for quenching analyses as already described.
(§2) Quenching of intrinsic tryptophan fluorescence at 338 nm has been analyzed by Stern–Volmer equation (Fo/F = 1 + KSV[L]), where F and F0 are the fluorescence intensity, respectively with or without ligand (L), and KSV is the Stern–Volmer constant value. Based on obtained results, punicalagin is able to quench the fluorescence of both proteins with a Stern–Volmer constant always greater than 1.0 × 10^4 M^−1 (Figure 2B and Table 1). […] In order to further characterize the binding process, data were analyzed using the equation described by Bi et al. and the reiterative calculation process described by Sun et al., providing an estimation of the Kd values (Table 1). Punicalagin binds both PDIAs in the micro-molar order of magnitude, showing a slightly greater affinity toward PDIA3, which tryptophan residues appear more quenchable upon punicalagin binding.

PDIA3 [2] = biological target: T2, PDIA3 (Homo sapiens, UniProt P30101); assay: Tryptophan fluorescence quenching titration, PDIA3; format: binding; conditions: for Stern–Volmer constant KSV: 0.1 × 10^−6 M protein; for Stern–Volmer constant KSV / Kd: pH 7.4, 25 °C; for Kd: fluorescence quenching
T2 construct: Mature human recombinant PDIA3 protein was expressed and purified; made in house
T2 sequence (P30101 25-505): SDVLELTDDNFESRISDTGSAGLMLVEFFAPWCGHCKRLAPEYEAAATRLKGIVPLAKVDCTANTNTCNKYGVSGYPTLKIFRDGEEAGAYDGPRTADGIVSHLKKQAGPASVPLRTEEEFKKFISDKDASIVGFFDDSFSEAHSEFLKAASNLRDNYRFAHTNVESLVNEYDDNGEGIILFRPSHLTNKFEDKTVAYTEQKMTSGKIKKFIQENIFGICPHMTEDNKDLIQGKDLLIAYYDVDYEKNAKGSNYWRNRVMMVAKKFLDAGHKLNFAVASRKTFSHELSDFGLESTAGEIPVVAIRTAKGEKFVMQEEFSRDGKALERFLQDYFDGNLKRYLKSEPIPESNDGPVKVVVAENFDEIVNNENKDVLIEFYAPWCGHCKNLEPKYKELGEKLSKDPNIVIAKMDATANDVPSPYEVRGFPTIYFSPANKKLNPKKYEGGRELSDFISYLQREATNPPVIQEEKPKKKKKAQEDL
Procedure: as §1, §2

PDIA1 [3] = biological target: T1, PDIA1; assay: Isothermal titration calorimetry, PDIA1; format: binding; conditions: ITC, PDIA1 reduced form, 25 °C
Procedure: (§3) Punicalagin interaction with PDIA3 and PDIA1 was investigated using isothermal titration calorimetry (ITC) with a MicroCal ITC200 (Malvern Instruments, Malvern, UK). […] Protein solution was loaded in the sample cell (0.2 mL), and the syringe was filled with punicalagin 250 µM dissolved in the same buffer. A total of 20 ligand aliquots (the first aliquot of 0.4 µL in 0.8 s and the other 19 aliquots of 2 µL in 4 s) were gradually added to the sample cell at intervals of 200 s each other to allow baseline recovery. The syringe stirring speed was set at 800 rpm. Protein and punicalagin solutions were thoroughly degassed on the MicroCal’s Thermovac machine before loading to avoid air bubble formation during the titration. Data analyses were performed by Origin software version 8.0 (OriginLab, Northampton, MA, USA). The heat of dilution for the ligand was determined in parallel, and this value was subtracted from the integrated data before curve fitting. The integration of the area under each heat burst curve was determined. All injection heats as a function of the molar ratio were plotted and analyzed using the one set of sites model to provide the dissociation constants.

PDIA3 [4] = biological target: T2, PDIA3; assay: Isothermal titration calorimetry, PDIA3; format: binding; conditions: ITC, PDIA3 reduced form, 25 °C
Procedure: as §3

PDIA1 [5] = biological target: T1, PDIA1; assay: Differential scanning calorimetry thermal denaturation, PDIA1; format: binding; conditions: reduced PDIA1 5 µM, punicalagin 25 µM
Procedure: (§4) Protein stability in solution was assayed by differential scanning calorimetry (DSC) with a Microcal VP-DSC (Microcal, Northampton, MA, USA) testing both proteins. […] The reference cell was filled with protein-free buffer. A heating rate of 60 °C h^−1 was set, and the measurement cell worked under an excess pressure of 0.2 kPa to avoid air bubble formation during the heating. The heat absorption during the denaturation process was measured by subtracting the instrumental baseline from the sample trace and normalizing for protein concentration. To test the effect of the ligand on protein stability, analysis was also performed on both proteins in the presence of punicalagin (25 µM final concentration). The melting points (Tm, temperature at which excess heat capacity reaches a maximum) were directly observable from the thermogram. Nevertheless, data deconvolution using the Origin software provided by MicroCal was necessary to obtain Tm values.

PDIA3 [6] = biological target: T2, PDIA3; assay: Differential scanning calorimetry thermal denaturation, PDIA3; format: binding; conditions: reduced PDIA3 5 µM, punicalagin 25 µM
Procedure: as §4

PDIA1 [7] = biological target: T1, PDIA1; assay: Disulfide reductase activity with di-E-GSSG, PDIA1; format: biochemical; conditions: PDIA1, di-E-GSSG substrate
Procedure: (§5) PDIAs disulfide reductase activity was monitored by using di-eosin glutathione disulfide (di-E-GSSG) as a fluorogenic substrate of PDIAs. Di-E-GSSG was synthesized by the reaction of eosin isothiocyanate with oxidized glutathione (GSSG) according to the method of Raturi and Mutus with some modifications. Protein activity was evaluated by monitoring the emission fluorescence increase (λem = 545 nm and λex = 525 nm), and the effect of punicalagin (concentration ranging from 0.2 to 50 µM) was tested. Inhibition constants were extrapolated by GraphPad Prism 8.0 software (GraphPad Software, San Diego, CA, USA), plotting the obtained data as logarithm dose-response curves.
(§6) Punicalagin effects have also been studied on the enzymatic activity of PDIA3 and PDIA1. It is well known that both proteins catalyze oxidoreductase and isomerase reactions involving thiol groups and disulfide bonds. PDIs’ reductase activity was evaluated using di-E-GSSG as fluorogenic substrate and was calculated as the initial velocity in fluorescence increased due to the reduction in the fluorogenic substrate. […] For comparison purposes, the punicalagin inhibitory effect was extended to PDIA1. Results were analyzed as logarithmic dose response, and the half-maximal inhibitory concentrations (IC50) were evaluated (Figure 4).

PDIA3 [8] = biological target: T2, PDIA3; assay: Disulfide reductase activity with di-E-GSSG, PDIA3; format: biochemical; conditions: PDIA3, di-E-GSSG substrate
Procedure: as §5, §6

PDIA3 [9] = biological target: T2, PDIA3; parameters: method as in PMID 29425676; conditions: PDIA3 reductase activity, non-competitive inhibitor; cited from earlier work
[10] = parameters: method as in printed; conditions: background statement, ref not given; cited from earlier work

T1 sequence (P07237 18-508): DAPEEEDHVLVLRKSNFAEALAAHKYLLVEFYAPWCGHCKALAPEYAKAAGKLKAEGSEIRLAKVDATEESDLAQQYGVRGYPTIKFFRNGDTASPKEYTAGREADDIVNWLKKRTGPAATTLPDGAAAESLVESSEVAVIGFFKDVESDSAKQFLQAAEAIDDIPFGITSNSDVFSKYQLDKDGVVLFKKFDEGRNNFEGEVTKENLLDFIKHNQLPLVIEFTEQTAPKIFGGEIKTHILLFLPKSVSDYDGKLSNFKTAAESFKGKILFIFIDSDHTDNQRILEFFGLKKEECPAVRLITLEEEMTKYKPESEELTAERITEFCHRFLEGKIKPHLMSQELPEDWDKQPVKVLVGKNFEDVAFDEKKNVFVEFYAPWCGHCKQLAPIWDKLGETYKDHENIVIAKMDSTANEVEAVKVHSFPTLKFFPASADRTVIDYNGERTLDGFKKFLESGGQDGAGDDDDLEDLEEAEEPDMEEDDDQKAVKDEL

With `O=C1O[C@H]2[C@@H]3OC(=O)c4cc(O)c(O)c(O)c4-c4c(O)c(O)c5oc(=O)c6c(c(O)c(O)c7oc(=O)c4c5c76)-c4c(cc(O)c(O)c4O)C(=O)OC[C@H]3OC(O)[C@@H]2OC(=O)c2cc(O)c(O)c(O)c2-c2c1cc(O)c(O)c2O` (mixture of isomers) [punicalagin] the “Quenching constant Kq” value (PDIA1 [1]; PDIA1, KSV = Kqτ, τ in the order of 1.0 × 10^−8 s) was “greater than 1.0 × 10^10 M^1s^−1”, the “Stern–Volmer constant (bound stated in text)” value (PDIA1 [1]; PDIA1, both proteins always greater) was “greater than 1.0 × 10^4 M^−1” and the “Stern–Volmer constant KSV” value (PDIA1 [1]; PDIA1 not reduced form) was 183.2 ± 2.7 M^−1 × 10^3. For the same compound, the “Stern–Volmer constant KSV” value (PDIA1 [1]; PDIA1 reduced form) was 97.9 ± 2.1 M^−1 × 10^3, the Kd (PDIA1 [1]; PDIA1 not reduced form) was 4.9 µM and the Kd (PDIA1 [1]; PDIA1 reduced form) was 11.9 µM. For the same compound, the “Quenching constant Kq” value (PDIA3 [2]; PDIA3, KSV = Kqτ, τ in the order of 1.0 × 10^−8 s) was “greater than 1.0 × 10^10 M^1s^−1”, the “Stern–Volmer constant (bound stated in text)” value (PDIA3 [2]; PDIA3, both proteins always greater) was “greater than 1.0 × 10^4 M^−1” and the “Stern–Volmer constant KSV” value (PDIA3 [2]; PDIA3 not reduced form) was 240.4 ± 3.6 M^−1 × 10^3. The “Stern–Volmer constant KSV” value (PDIA3 [2]; PDIA3 reduced form) was 157.1 ± 1.9 M^−1 × 10^3, the Kd (PDIA3 [2]; PDIA3 not reduced form) was 3.9 µM and the Kd (PDIA3 [2]; PDIA3 reduced form) was 10 µM. The Kd (PDIA1 [3]) was 1 ± 0.2 µM, the TΔS (PDIA1 [3]) was 5.6 ± 0.5 kcal/mol and the ΔH (PDIA1 [3]) was -2.7 ± 0.4 kcal/mol. For the same compound, the Kd (PDIA3 [4]) was 1.2 ± 0.3 µM, the TΔS (PDIA3 [4]) was 6.8 ± 0.4 kcal/mol and the ΔH (PDIA3 [4]) was -1.1 ± 0.2 kcal/mol. For the same compound, the “Tm of first endothermic peak in presence of punicalagin” value (PDIA1 [5]; protein alone 46.0 °C) was 42 °C, the “Tm of second endothermic peak in presence of punicalagin” value (PDIA1 [5]; protein alone 61.0 °C) was 60 °C and the “Tm of first endothermic peak in presence of punicalagin” value (PDIA3 [6]; protein alone 44.9 °C) was 40.4 °C. For the same compound, the “Tm of second endothermic peak in presence of punicalagin” value (PDIA3 [6]; protein alone 53.9 °C) was 51.6 °C, the IC50 (PDIA1 [7]) was 6.1 ± 0.6 µM and the IC50 (PDIA3 [8]) was 1.5 ± 0.2 µM. The Ki (PDIA3 [9]) was 0.39 µM and the solubility in water [10] was “soluble in water”.
